Where no end group is shown, it is not given here.
Legend:
[1] = tested on: Notch2NRR; assay: Spot phage ELISA, Notch2NRR; assay type: binding, human; conditions: for S/N: spot phage ELISA on Notch2NRR, signal-to-noise ratio of phage-displayed DCP clone; for ELISA: spot phage ELISA signal of phage-displayed DCP clone on Notch2NRR
[2] = tested on: Fz7CRD-Fc; assay type: binding; conditions: for S/N: ratio of signal for target protein over BSA background; for ELISA: spot phage ELISA signal, DCP displayed on M13 p8
[3] = tested on: HtrA1; assay type: binding, human; conditions: ratio of signal for target protein over BSA background

Sequence | S/N [1] | ELISA [1] | S/N [2] | ELISA [2] | S/N [3]
AFDCLGQCGRCDFHKLQCIWSNRNYPYCNSSCTR (disulfide (positions not given here)) [AVR9 3] | 47.3 | 3.31 |  |  | 
AFDCLGQCGRCDFHKLQCVHSNRNSFYCNSSCTR (disulfide (positions not given here)) [AVR9 7] | 43.6 | 3.23 |  |  | 
AFDCLGQCGRCDFHKLQCVLVEPSGWYQVISWKYCNSSCTR (also: bicyclic or more (positions not given here)) [Fz7CRD-Fc AVR9 2] |  |  | 5.0 | 0.29 | 
AFDCLGQCGRCDFHKLQCVPYSWTYKQYCNSSCTR (disulfide (positions not given here)) [AVR9 9] | 35.7 | 2.57 |  |  | 
AFDCLGQCGRCDFHKLQCVSSNRNTPYCNSSCTR (disulfide (positions not given here)) [AVR9 5] | 45.8 | 3.31 |  |  | 
AFDCLGQCGRCDFHKLQCVVGWASMRNYCNSSCTR (disulfide (positions not given here)) [AVR9 8] | 42.0 | 3.14 |  |  | 
AFDCLGQCGRCDFHKLQCVWGNRNSSYCNSSCTR (disulfide (positions not given here)) [AVR9 6] | 35.2 | 3.28 |  |  | 
AFDCLGQCGRCDFHKLQCVWSNRHSPYCNSSCTR (disulfide (positions not given here)) [AVR9 4] | 39.3 | 3.31 |  |  | 
AFDCLGQCGRCDFHKLQCVWSNRNSLYCNSSCTR (disulfide (positions not given here)) [AVR9 1] | 2.0 | 3.42 |  |  | 
AFDCLGQCGRCDFHKLQCVWSNRNSPYCNSSCTR (disulfide (positions not given here)) [AVR9 2] | 44.7 | 3.32 |  |  | 
GCGWLPELKLWCKQDSDCLAGCVCEDMIDCG (also: bicyclic or more (positions not given here)) [Fz7CRD-Fc EET I-II 38] |  |  | 15.1 | 1.32 | 
GCGWLPELKLWCKQDSDCLAGCVCEDMIDCG (also: bicyclic or more (positions not given here)) [Fz7CRD-Fc EET I-II 42] |  |  | 36.2 | 2.79 | 
GCGWWFKQWFCKQDSDCLAGCVCGPNGFCG (also: bicyclic or more (positions not given here)) [Fz7CRD-Fc EET I-II 19] |  |  | 3.8 | 1.83 | 
GCGYWYITWFCKQDSDCLAGCVCGPNGFCG (also: bicyclic or more (positions not given here)) [Fz7CRD-Fc EET I-II 30] |  |  | 3.0 | 2.64 | 
GCKLMRQRCKQDSDCLAGCVCTQQWWCG (disulfide (positions not given here)) [N2N-EET-94] | 36.3 | 3.52 |  |  | 
GCNGQRRPWGRWCKQDSDCLAGCVCGPNGFCG (disulfide (positions not given here)) [N2N-EET-33-P1] | 11.9 | 2.39 |  |  | 
GCTLMRTRCKQDSDCLAGCVCEHIYWCG (disulfide (positions not given here)) [N2N-EET-n19] | 12.8 | 3.16 |  |  | 
GCTLYMYLCKQDSDCLAGWMFHHCG [Fz7CRD-Fc EET I-II 26] |  |  | 28.9 | 1.79 | 
GCTLYMYLCKQDSDCLAGWMFHHCG [Fz7CRD-Fc EET I-II 55] |  |  | 29.3 | 2.81 | 

Sequence | S/N [1] | ELISA [1] | S/N [2] | ELISA [2] | S/N [3]
GCVHVIREWWCKQDSDSSWFVCGPNGFCG [Fz7CRD-Fc EET I-II 17] |  |  | 26.4 | 2.69 | 
GPTQSAFGECGGIGYSGPTVCASGTTCQVLSPMFSFCLPGAS (also: bicyclic or more (positions not given here)) [Fz7CRD-Fc CBD 57] |  |  | 28.7 | 2.41 | 
GPTQSAFGECGGIGYSGPTVCASGTTCQVLSPYWSFCLPGAS (also: bicyclic or more (positions not given here)) [Fz7CRD-Fc CBD 15] |  |  | 38.4 | 2.76 | 
GPTQSAGGWCGGIGYSGPTVCASGTTCQVLTPMESICLPGAS (also: bicyclic or more (positions not given here)) [Fz7CRD-Fc CBD 29] |  |  | 5.7 | 0.36 | 
GPTQSAWGWCGGIGYSGPTVCASGTTCQVLSPYESYCLPGAS (also: bicyclic or more (positions not given here)) [Fz7CRD-Fc CBD 53] |  |  | 4.3 | 0.32 | 
GPTQSHYGQCGGAGYWGRWICSGTTCQPLPQSKSQCLPGAS (disulfide (positions not given here)) [CBD 1] | 38.2 | 3.79 |  |  | 
GPTQSHYGQCGGEGYWGRWICSGTTCQPYNTHFSQCLPGAS (disulfide (positions not given here)) [CBD 2] | 28.5 | 3.05 |  |  | 
GPTQSHYGQCGGFGYWGMRHCSGTTCQWQHLPSQ CLPGAS (disulfide) [CBD 3] | 36.6 | 3.00 |  |  | 
GPTQSHYGQCGGQGYWGMRHCSGTTCQWGAKGPSQCLPGAS (disulfide (positions not given here)) [CBD 4] | 33.1 | 3.68 |  |  | 
GPTQSHYGQCGGTGYWGMRNCSGTTCQRFAPQNSQCLPGAS (disulfide (positions not given here)) [CBD 5] | 47.2 | 3.59 |  |  | 
GPTQSIWGECGGIGYSGPTVCASGTTCQVLTPFYSFCLPGAS (also: bicyclic or more (positions not given here)) [Fz7CRD-Fc CBD 14] |  |  | 15.7 | 1.18 | 
GPTQSKYGVCGGIGYSGPTVCASGTTCQVLYPGYSLCLPGAS (also: bicyclic or more (positions not given here)) [Fz7CRD-Fc CBD 72] |  |  | 37.9 | 2.80 | 
GPTQSLWGECGGIGYSGPTVCASGTTCQVLSPEYSFCLPGAS (also: bicyclic or more (positions not given here)) [Fz7CRD-Fc CBD 18] |  |  | 16.4 | 1.75 | 
GPTQSMFGECGGIGYSGPTVCASGTTCQVLSPFYSFCLPGAS (also: bicyclic or more (positions not given here)) [Fz7CRD-Fc CBD 47] |  |  | 30.4 | 2.59 | 
GPTQSMWGECGGIGYSGPTVCASGTTCQVLSPFYSFCLPGAS (also: bicyclic or more (positions not given here)) [Fz7CRD-Fc CBD 56] |  |  | 3.7 | 0.27 | 
GPTQSVYGYCGGIGYSGPTVCASGTTCQVLFPGHSFCLPGAS (also: bicyclic or more (positions not given here)) [Fz7CRD-Fc CBD 23] |  |  | 20.9 | 2.78 | 
GPTQSWFGQCGGIGYSGPTVCASGTTCQVLVPDMSFCLPGAS (also: bicyclic or more (positions not given here)) [Fz7CRD-Fc CBD 87] |  |  | 32.0 | 2.66 | 
WIPCISAALGCSCKNKVCYYTILPISYYWHLVCGESCV (also: bicyclic or more (positions not given here)) [HtrA1 CirculinA 45] |  |  |  |  | 8.2
WIPCISAALGCSCKNKVCYYVMKYCGESCV (also: bicyclic or more (positions not given here)) [HtrA1 CirculinA 17] |  |  |  |  | 13.7
